Data from patent publication US20250177347A1, “SCLAREOL OR SCLAREOLIDE FOR USE IN THE TREATMENT OF INFLAMMATORY SKIN CONDITIONS” (ISP Investments LLC, priority 2022, published 2025).
Values after ≈ are worked out from the molar mass of the structure shown.

Columns and labels:
[1] = system: C. glabrata KCTC7219; settings: cited from earlier work
[2] = system: C. tropicalis var. tropicalis KCTC17762; settings: cited from earlier work
[3] = system: C. albicans KCTC7965; settings: cited from earlier work
[4] = system: C. parapsilosis KACC49573; settings: cited from earlier work
[5] = system: C. parapsilosis var. parapsilosis KACC45480; settings: cited from earlier work
[6] = system: C. auris KCTC17809; settings: cited from earlier work
[7] = system: Malassezia restricta; assay: Broth microdilution MIC assay (EUCAST guidelines, slight modifications), resazurin fluorescence; assay type: cell-based; settings: 48 h-60 h at 34° C.
Procedure: Objective: Sclareolide antifungal potential on Malassezia restricta was evaluated by the broth microdilution method.
Protocol: Malassezia restricta was routinely grown on modified Leeman-Notman (mLN) agar. The broth microdilution assay was performed following EUCAST guidelines (www.eucast.org) with slight modifications. Between five and ten colonies were suspended in a modified RPMI 1640 media supplemented with resazurin at a D.O (Density Optical) of 0.1. In a 96 well plate, serial dilutions of sclareolide (0.00023% to 0.12%) from a 24% stock solution in DMSO, and ketoconazole (0.001 to 0.25 μg/ml) solutions were prepared in modified RPMI 1640 culture medium. An equal volume of Malassezia restricta inoculum was added to the test samples at different concentrations. Following 48 h-60 h of incubation at 34° C., resazurin fluorescence was analyzed at 530 nm and 590 nm.
Results and conclusion: Results are presented as relative fluorescence intensity compared to DMSO control. MIC is defined as the lowest drug concentration that prevents growth of microorganisms.

[8] = system: keratin 10; assay: Keratin 10 immunohistochemistry in biopsies of healthy human abdominal skin in culture; assay type: cell-based
Procedure: Objective: The aim of this study is to show the effect of sclareolide on the synthesis of keratin 10 in biopsies of healthy abdominal skin.
Method: keratin 10 was assessed by immunohistochemistry with a specific antibody. […] Control biopsies received only 0.1% DMSO. The immunostaining was performed using paraffin sections incubated in the presence of anti-keratin 10 antibody (rabbit monoclonal, Abcam). After an hour and a half of incubation followed by rinses, the sections were incubated in the presence of the secondary anti-rabbit antibody coupled with a fluorophore (Alexa Fluor® 488, Invitrogen). The sections were then examined under a fluorescence microscope (Nikon Eclipse Ni-E microscope). […] fluorescence was then observed (using NiS-AR Nikon acquisition software) and quantified by image analysis (Volocity® image analysis software, Improvision).
(§1) This effect may be associated with a better quality of the skin barrier function.

[9] = system: epidermal lipids; assay: Epidermal lipids, Nile Red staining, in biopsies of healthy human abdominal skin in culture; assay type: cell-based
Procedure: Objective: The aim of this study is to show the effect of sclareolide on the synthesis of epidermal lipids in biopsies of healthy abdominal skin.
Method: Epidermal lipids were assessed by fluorescent staining by using the fluorescent dye Nile Red.
[…] Control biopsies received only 0.1% DMSO. The epidermal lipids staining was performed using paraffin sections incubated with 100 nM of Nile Red solution (Sigma) for 10 minutes. The sections were then examined under a fluorescence microscope (Nikon Eclipse Ni-E microscope). Red fluorescence was then observed (using NiS-AR Nikon acquisition software) and quantified by image analysis (Volocity® image analysis software, Improvision).
as §1

[10] = system: scalp reconstructed human epidermis; assay: Malassezia restricta applied topically to scalp reconstructed human epidermis: histology and cytokine ELISA; assay type: cell-based; settings: sclareolide 0.12% topical, two applications
Source text: Objective: Sclareolide anti-inflammatory effect and barrier function prevention was quantified by cytokine quantification and histological observation respectively
Protocol: Malassezia restricta was applied topically to a scalp reconstructed human epidermis. This in vitro model is reconstructed from keratinocytes isolated from scalp skin. More precisely, the location of the epidermis used to isolate keratinocytes is interfollicular epidermis. These interfollicular keratinocytes was harvested and transferred into a cell culture insert and after several days of reconstruction, 100 μl of Malassezia restricta was applied on the top of the epidermis. Two days later, 100 μL sclareolide at a concentration of 0,12% was applied on the top of the epidermis, another application was performed after 24 hours. Ninety-six hours after the beginning of the Malassezia treatment, scalp reconstructed epidermis was stopped to performed histological analysis to observe modifications in the upper layers of the epidermis and the supernatant was harvested to measure inflammatory cytokine release by ELISA method.
In parallel, sclareolide decreased the inflammation induced by Malassezia restricta by the decrease of interleukin-8 release by 40,3% illustrated by FIG. 2.

[11] = sclareolide 0.0025% in 0.1% DMSO, twice a day for 48 hours topically, vs 0.1% DMSO control
[12] = skin biopsies cultures, composition comprising of sclareolide
[13] = modified RPMI 1640, relative fluorescence vs DMSO control

In the case of `C=C[C@](C)(O)CC[C@@H]1[C@@]2(C)CCCC(C)(C)[C@@H]2CC[C@@]1(C)O` [Sclareol], the “Growth, biofilm formation, and yeast-hyphal transition” value (“Growth, biofilm formation” for short) [1] is listed as “inhibiting growth, biofilm formation, and yeast-hyphal transition”, the “Growth, biofilm formation” value [2] is listed as “inhibiting growth, biofilm formation, and yeast-hyphal transition” and the “Growth, biofilm formation” value [3] is listed as “inhibiting growth, biofilm formation, and yeast-hyphal transition”. For the same compound, the “Growth, biofilm formation” value [4] was “inhibiting growth, biofilm formation, and yeast-hyphal transition”, the “Growth, biofilm formation” value [5] was “inhibiting growth, biofilm formation, and yeast-hyphal transition” and the “Growth, biofilm formation” value [6] was “inhibiting growth, biofilm formation, and yeast-hyphal transition”.

Work on `CC(=O)N1CCN(c2ccc(OCC3COC(Cn4ccnc4)(c4ccc(Cl)cc4Cl)O3)cc2)CC1` (stereo not drawn) [ketoconazole, reference compound] yielded an MIC ([7]; Malassezia restricta, modified RPMI 1640) of 0.0625 µg/mL (≈ 0.118 µM).

In the case of `CC1(C)CCC[C@]2(C)[C@H]3CC(=O)O[C@]3(C)CC[C@@H]12` [sclareolide, Sclareolide], the “Levels of keratin 10” value [8, 11] is reported as “increase the levels of keratin 10”, the “Keratin 10 expression” value [8, 12] is reported as “increased” and the “Concentration at which growth of Malassezia restricta was completely inhibited (MIC)” value [7, 13] is reported as 0.12%. The “Concentration from which growth of Malassezia restricta was significantly inhibited” value [7, 13] was 0.015%, the “Levels of epidermal lipids” value [9, 11] was “increase the levels of epidermal lipids” and the Total lipid content [9, 12] was “increased”. For the same compound, the “Barrier function / penetration of Malassezia restricta in upper layers of the epidermis (histology)” value ([10]; 96 h) was “prevented the disruption of the barrier function and the penetration of Malassezia restricta in the upper layers of the epidermis” and the “Decrease of interleukin-8 release” value ([10]; inflammation induced by Malassezia restricta, ELISA of supernatant at 96 h) was 40,3%.
